In ChEMBL document CHEMBL1136598, “Design, synthesis, and structure-activity relationships of unsubstituted piperazinone-based transition state factor Xa inhibitors” (Bioorg Med Chem Lett, 2003):

Tests used:
Prothrombin = Prothrombin (Homo sapiens, UniProt P00734); assay: In vitro inhibitory activity against serine protease thrombin
Coagulation factor X [1] = molecular target: T1, Coagulation factor X (Homo sapiens, UniProt P00742); assay: In vitro inhibitory activity against factor Xa
[2] = molecular target: Vitamin K-dependent protein C (Homo sapiens, UniProt P04070); assay: Inhibitory activity against activated protein C (aPC)
Sequence of Vitamin K-dependent protein C (P04070 43-197 limits assumed): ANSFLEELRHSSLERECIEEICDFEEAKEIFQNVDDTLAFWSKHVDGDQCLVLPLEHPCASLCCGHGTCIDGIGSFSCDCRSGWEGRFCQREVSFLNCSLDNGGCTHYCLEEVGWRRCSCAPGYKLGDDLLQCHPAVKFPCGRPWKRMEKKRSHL
Sequence of Vitamin K-dependent protein C (P04070 212-461 limits assumed): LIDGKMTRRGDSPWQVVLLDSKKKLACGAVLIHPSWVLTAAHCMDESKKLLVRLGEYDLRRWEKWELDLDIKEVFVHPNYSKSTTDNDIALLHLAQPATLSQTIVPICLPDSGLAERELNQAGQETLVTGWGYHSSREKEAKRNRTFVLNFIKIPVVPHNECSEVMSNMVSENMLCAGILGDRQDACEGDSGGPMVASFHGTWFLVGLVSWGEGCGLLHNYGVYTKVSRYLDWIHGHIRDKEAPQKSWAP

[3] = Half life period after intravenous administration in rat; assay type: ADME, organism-based; conditions: in vivo
Coagulation factor X [4] = molecular target: T1, Coagulation factor X; assay: (§1) In vitro binding affinity towards factor Xa
[5] = molecular target: Tissue-type plasminogen activator (Homo sapiens, UniProt P00750); assay: Inhibitory activity against tissue plasminogen activator (tissue plasminogen activator)
Sequence of Tissue-type plasminogen activator (P00750 whole entry): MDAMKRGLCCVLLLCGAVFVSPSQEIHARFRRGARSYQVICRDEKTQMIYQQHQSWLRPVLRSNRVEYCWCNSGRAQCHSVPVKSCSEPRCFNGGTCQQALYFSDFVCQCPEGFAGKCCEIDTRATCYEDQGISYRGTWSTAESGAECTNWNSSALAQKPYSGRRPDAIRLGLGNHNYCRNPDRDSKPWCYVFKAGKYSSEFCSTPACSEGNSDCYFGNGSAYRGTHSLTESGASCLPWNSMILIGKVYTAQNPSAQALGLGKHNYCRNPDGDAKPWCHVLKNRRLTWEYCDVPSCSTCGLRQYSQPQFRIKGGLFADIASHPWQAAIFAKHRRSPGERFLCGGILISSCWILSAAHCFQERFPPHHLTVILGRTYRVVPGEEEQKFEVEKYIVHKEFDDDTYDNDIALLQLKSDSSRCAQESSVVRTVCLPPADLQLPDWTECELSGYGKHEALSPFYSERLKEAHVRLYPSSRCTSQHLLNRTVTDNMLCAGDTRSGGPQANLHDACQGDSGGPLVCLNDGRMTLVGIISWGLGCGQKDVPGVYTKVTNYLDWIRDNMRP

Plasminogen = Plasminogen (Homo sapiens, UniProt P00747); assay: Inhibitory activity against Plasmin
Sequence of Plasminogen (P00747 97-580 limits assumed): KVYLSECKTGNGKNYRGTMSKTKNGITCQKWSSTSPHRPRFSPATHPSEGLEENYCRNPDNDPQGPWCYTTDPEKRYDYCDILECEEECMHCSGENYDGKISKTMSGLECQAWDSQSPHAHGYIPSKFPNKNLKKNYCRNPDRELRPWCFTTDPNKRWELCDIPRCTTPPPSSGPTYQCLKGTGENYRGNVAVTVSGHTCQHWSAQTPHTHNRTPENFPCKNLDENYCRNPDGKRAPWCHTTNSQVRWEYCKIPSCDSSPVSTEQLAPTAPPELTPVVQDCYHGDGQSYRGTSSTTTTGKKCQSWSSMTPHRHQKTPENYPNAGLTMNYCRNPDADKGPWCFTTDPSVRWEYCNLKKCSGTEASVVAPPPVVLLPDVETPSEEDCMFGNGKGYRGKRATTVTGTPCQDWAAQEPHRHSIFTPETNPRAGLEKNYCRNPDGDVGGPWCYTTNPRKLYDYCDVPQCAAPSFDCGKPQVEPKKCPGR
Sequence of Plasminogen (P00747 581-810 limits assumed): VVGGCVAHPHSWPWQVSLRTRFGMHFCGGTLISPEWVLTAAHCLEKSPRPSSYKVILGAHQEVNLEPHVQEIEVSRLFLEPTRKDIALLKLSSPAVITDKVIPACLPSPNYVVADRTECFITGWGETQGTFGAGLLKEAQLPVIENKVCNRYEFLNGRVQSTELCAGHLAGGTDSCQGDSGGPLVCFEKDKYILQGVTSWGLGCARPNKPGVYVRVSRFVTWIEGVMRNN

Serine protease 1 = Serine protease 1 (Homo sapiens, UniProt P07477); assay: Inhibitory activity against Trypsin
Sequence of Serine protease 1 (P07477 whole entry): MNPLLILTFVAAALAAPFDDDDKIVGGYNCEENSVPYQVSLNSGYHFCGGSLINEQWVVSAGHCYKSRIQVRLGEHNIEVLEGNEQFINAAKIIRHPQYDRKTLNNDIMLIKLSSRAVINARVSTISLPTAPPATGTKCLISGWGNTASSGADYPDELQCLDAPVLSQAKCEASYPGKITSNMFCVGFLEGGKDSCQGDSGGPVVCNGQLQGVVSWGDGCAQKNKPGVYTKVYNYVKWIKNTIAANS

[6] = Inhibitory activity against Kallikrein
[7] = In vivo half life period after intravenous administration in rat; assay type: ADME, organism-based
Oryctolagus cuniculus [8] = assay: In vivo plasma concentration required to inhibit thrombosis formation in rabbit; assay type: functional, organism-based
[9] = In vitro anticoagulant activity was measured by activated partial thromboplastin time (APTT) assay; assay type: functional
[10] = In vitro anticoagulant activity was measured by prothrombin time (PT) assay; assay type: functional
[11] = In vitro anticoagulant activity was measured by plasma based on thrombin generation (TG) assay; assay type: functional
Oryctolagus cuniculus [12] = assay: In vivo inhibition thrombosis formation in rabbit; assay type: functional
Coagulation factor X [13] = molecular target: T1, Coagulation factor X; assay: as §1; remark: listed apart in the source

T1 sequence (P00742 41-179 limits assumed): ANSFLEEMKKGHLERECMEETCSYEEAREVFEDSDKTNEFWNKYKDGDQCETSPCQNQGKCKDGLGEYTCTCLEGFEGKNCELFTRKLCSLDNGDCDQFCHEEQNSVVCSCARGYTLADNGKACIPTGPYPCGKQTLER
T1 sequence (P00742 235-488 limits assumed): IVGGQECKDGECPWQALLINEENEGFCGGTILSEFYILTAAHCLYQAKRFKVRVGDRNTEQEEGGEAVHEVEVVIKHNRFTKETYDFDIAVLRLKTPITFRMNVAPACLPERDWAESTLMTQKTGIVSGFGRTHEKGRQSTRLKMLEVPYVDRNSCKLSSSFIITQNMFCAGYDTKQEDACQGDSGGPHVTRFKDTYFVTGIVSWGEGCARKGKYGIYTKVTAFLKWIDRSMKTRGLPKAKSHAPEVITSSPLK

| IC50 (Prothrombin) [nM] | IC50 (Coagulation factor X [1]) [nM] | SMILES | further results |
| --- | --- | --- | --- |
| 2000 | 5 | N=C(N)NCCC[C@@H](NC(=O)CN1CCN(S(=O)(=O)Cc2ccccc2)CCC1=O)C(=O)c1nccs1 |  |
| 7000 | 320 | N=C(N)NCCC[C@@H](NC(=O)CN1CCN(C(=O)c2ccccc2)CC1=O)C(=O)c1nccs1 |  |
| 4000 | 38 | N#Cc1c(Cl)cccc1Oc1ccc(S(=O)(=O)N2CCN(CC(=O)NC(CCCNC(=N)N)C(=O)c3nccs3)C(=O)C2)cc1 (configuration not stated) |  |
| 573 | 1 | N=C(N)NCCCC(NC(=O)CN1CCN(S(=O)(=O)c2cc(Cl)c(Cl)cc2Cl)CC1=O)C(=O)c1nccs1 (configuration not stated) |  |
| 5000 | 116 | CC(=O)Nc1ccc(S(=O)(=O)N2CCN(CC(=O)NC(CCCNC(=N)N)C(=O)c3nccs3)C(=O)C2)cc1 (configuration not stated) |  |
| 220000 | 2000 | N=C(N)NCCC[C@@H](NC(=O)CN1CCNCC1=O)C(=O)c1nccs1 |  |
| 2000 | 21 | N=C(N)NCCC[C@@H](NC(=O)CN1CCN(C(=O)Cc2ccccc2)CC1=O)C(=O)c1nccs1 |  |
| 3000 | 32 | N#Cc1ccc(S(=O)(=O)N2CCN(CC(=O)NC(CCCNC(=N)N)C(=O)c3nccs3)C(=O)C2)cc1 (configuration not stated) |  |
| 751 | 0.51 | Cc1c(S(=O)(=O)N2CCN(CC(=O)NC(CCCNC(=N)N)C(=O)c3nccs3)C(=O)C2)sc2ccc(Cl)cc12 (configuration not stated) | IC50 [2]: 169 µM; half-life [3]: 5 min; Ki (Coagulation factor X [4]): 0.17 nM; IC50 [5]: 9.96 µM; IC50 (Plasminogen): 1.3 µM; IC50 (Serine protease 1): 20 nM |
| 4000 | 4 | N=C(N)NCCCC(NC(=O)CN1CCN(S(=O)(=O)c2ccc(-c3ccccn3)s2)CC1=O)C(=O)c1nccs1 (configuration not stated) |  |
| 138 | 29 | N=C(N)NCCC[C@@H](NC(=O)CN1CCC[C@H](NS(=O)(=O)Cc2ccccc2)C1=O)C(=O)c1nccs1 |  |
| 11000 | 17 | N=C(N)NCCC[C@@H](NC(=O)CN1CCN(C(=O)Cc2ccc(Cl)cc2)CC1=O)C(=O)c1nccs1 |  |
| 38 |  | N=C(N)NCCC[C@@H](NC(=O)CN1CCCC[C@H](NS(=O)(=O)Cc2ccccc2)C1=O)C(=O)c1nccs1 |  |
| 751 | 2 | N=C(N)NCCCC(NC(=O)CN1CCN(S(=O)(=O)c2ccc(F)cc2)CC1=O)C(=O)c1nccs1 (configuration not stated) |  |
| 1000 | 1 | N=C(N)NCCCC(NC(=O)CN1CCN(S(=O)(=O)c2ccc(Cl)c(Cl)c2)CC1=O)C(=O)c1nccs1 (configuration not stated) |  |
| 17000 | 510 | N=C(N)NCCCC(NC(=O)CN1CCN(S(=O)(=O)c2ccc(C(=O)O)cc2)CC1=O)C(=O)c1nccs1 (configuration not stated) |  |
| 12000 | 65 | N=C(N)NCCC[C@@H](NC(=O)CN1CCCC(CCC2CCNCC2)C1=O)C(=O)c1nccs1 (some centres not stated) |  |
| 134 | 5 | N=C(N)NCCCC(NC(=O)CN1CCN(S(=O)(=O)c2cccc(Cl)c2)CC1=O)C(=O)c1nccs1 (configuration not stated) |  |
| 375 | 3 | N=C(N)NCCCC(NC(=O)CN1CCN(S(=O)(=O)CCc2cccc3ccccc23)CC1=O)C(=O)c1nccs1 (configuration not stated) |  |
| 267 | 1 | N=C(N)NCCCC(NC(=O)CN1CCN(S(=O)(=O)c2cccc3cnccc23)CC1=O)C(=O)c1nccs1 (configuration not stated) |  |
| 1000 |  | N=C(N)NCCC[C@@H](NC(=O)CN1CCN(S(=O)(=O)c2ccc(Cl)cc2)CC1=O)C(=O)c1nccs1 | IC50 [2]: > 180 µM; IC50 [6]: 406 nM; half-life [7]: 22 min; Plasma concentration (Oryctolagus cuniculus [8]): 0.5 µM; 2x APTT [9]: 4.2 µM; 2x PT [10]: 11.2 µM; 2x TG [11]: 0.52 µM; IC50 [5]: 1.88 µM; IC50 (Plasminogen): 10.7 µM; IC50 (Serine protease 1): 10.8 nM; Inhibition (Oryctolagus cuniculus [12]): 90%; k off (Coagulation factor X [13]): 0.19 s⁻¹; k on (Coagulation factor X [13]): 3.4e+06 M⁻¹ s⁻¹ |
| 417 | 8 | N=C(N)NCCC[C@@H](NC(=O)CN1CCN(S(=O)(=O)c2ccccc2)CC1=O)C(=O)c1nccs1 |  |

| SMILES | IC50 (Prothrombin) [nM] | IC50 (Coagulation factor X [1]) [nM] | further results |
| --- | --- | --- | --- |
| N=C(N)NCCC[C@@H](NC(=O)Cn1cccc(NS(=O)(=O)Cc2ccccc2)c1=O)C(=O)c1nccs1 | 8 |  |  |
